The supplement of paper PMC10307832

Columns and labels:
Test in all cases: relative viability (nuclei count vs DMSO), 5 days (fraction); higher = more cells survive
VX-11e + Olaparib = compound: CC1=CN=C(N=C1C2=CNC(=C2)C(=O)N[C@H](CO)C3=CC(=CC=C3)Cl)NC4=C(C=C(C=C4)F)Cl [VX-11e] + O=C(c1cc(Cc2n[nH]c(=O)c3ccccc23)ccc1F)N1CCN(C(=O)C2CC2)CC1 [Olaparib] (partner 8 µM)
In short: (§1)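 The day after seeding in 1536-well plates, lung cancer cell lines were treated by pin tool with a single drug, or with a fixed anchor-drug dose together with five library-drug doses (not always all listed) in √10 steps. After 5 days, a combined fix-and-stain solution (final 0.05% Triton X-100, 1% formaldehyde, 1 ug/ml Hoechst) was added. Nuclei counted on 4× images gave relative viability as treated counts over vehicle counts, reported as the median of duplicate plates.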

VX-11e + Pemetrexed = compound: CC1=CN=C(N=C1C2=CNC(=C2)C(=O)N[C@H](CO)C3=CC(=CC=C3)Cl)NC4=C(C=C(C=C4)F)Cl [VX-11e] + Nc1nc2[nH]cc(CCc3ccc(C(=O)N[C@@H](CCC(=O)O)C(=O)O)cc3)c2c(=O)[nH]1 [Pemetrexed] (partner 0.2 µM)
In short: as §1

VX-11e + Vorinostat = compound: CC1=CN=C(N=C1C2=CNC(=C2)C(=O)N[C@H](CO)C3=CC(=CC=C3)Cl)NC4=C(C=C(C=C4)F)Cl [VX-11e] + O=C(CCCCCCC(=O)Nc1ccccc1)NO [Vorinostat] (partner 1 µM)
In short: as §1

VX-11e + Linsitinib = compound: CC1=CN=C(N=C1C2=CNC(=C2)C(=O)N[C@H](CO)C3=CC(=CC=C3)Cl)NC4=C(C=C(C=C4)F)Cl [VX-11e] + C[C@]1(O)C[C@@H](c2nc(-c3ccc4ccc(-c5ccccc5)nc4c3)c3c(N)nccn32)C1 [Linsitinib] (partner 1 µM)
In short: as §1

Cell Line	relative viability (VX-11e + Olaparib; first compound 0.04 µM)	relative viability (VX-11e + Olaparib; first compound 0.1265 µM)	relative viability (VX-11e + Olaparib; first compound 0.4 µM)	relative viability (VX-11e + Olaparib; first compound 1.265 µM)	relative viability (VX-11e + Olaparib; first compound 4 µM)	relative viability (VX-11e + Pemetrexed; first compound 0.04 µM)	relative viability (VX-11e + Pemetrexed; first compound 0.1265 µM)	relative viability (VX-11e + Pemetrexed; first compound 0.4 µM)	relative viability (VX-11e + Pemetrexed; first compound 1.265 µM)	relative viability (VX-11e + Pemetrexed; first compound 4 µM)	relative viability (VX-11e + Vorinostat; first compound 0.04 µM)	relative viability (VX-11e + Vorinostat; first compound 0.1265 µM)	relative viability (VX-11e + Vorinostat; first compound 0.4 µM)	relative viability (VX-11e + Vorinostat; first compound 1.265 µM)	relative viability (VX-11e + Vorinostat; first compound 4 µM)	relative viability (VX-11e + Linsitinib; first compound 0.04 µM)	relative viability (VX-11e + Linsitinib; first compound 0.1265 µM)	relative viability (VX-11e + Linsitinib; first compound 0.4 µM)	relative viability (VX-11e + Linsitinib; first compound 1.265 µM)	relative viability (VX-11e + Linsitinib; first compound 4 µM)
HCC-78	0.852	0.639	0.834	0.963	0.754	0.938	0.859	0.884	0.858	0.919	0.479	0.42	0.358	0.482	0.405	0.584	0.5	0.541	0.403	0.382
HCC-366	0.386	0.372		0.271	0.208	0.246	0.178		0.15	0.138	0.314	0.332		0.105	0.199	0.774	0.602		0.348	0.0744
HCC-827	0.556	0.609	0.724	0.768	0.516	0.254	0.226	0.241	0.271	0.252	0.924	0.846	1.03	0.918	0.761	0.967	0.934	0.975	1.12	0.859
HOP-62	0.668	0.248	0.174	0.304	0.24	0.348	0.264	0.277	0.192	0.22	0.519	0.59	0.345	0.201	0.158	0.903	0.773	0.973	0.831	0.226
LC-2-ad	0.713	0.669	0.746	0.673	0.687	0.277	0.247	0.285	0.239	0.243	0.84	0.695	0.733	0.456	0.376	0.831	0.852	0.787	0.572	0.508
LCLC-97TM1	0.432	0.363	0.29		0.103	0.183	0.14	0.243		0.171	0.765	0.718	0.758		0.149	0.158	0.172		0.203	0.116
LCLC-103H	0.787	0.748	0.719	0.638	0.667	0.442	0.437	0.53	0.417	0.493	0.807	0.68	0.673	0.46	0.66	1.24	0.985	0.954	0.857	0.836
LK-2	0.688	0.783	0.676	0.657	0.45	0.171	0.269	0.145	0.183	0.16	0.223	0.323	0.268	0.297	0.227	0.774	0.672	0.555	0.205	0.313
LOU-NH91	0.887	0.884		0.901	0.839	0.448	0.373		0.367	0.358	0.889	0.79		0.626	0.781	0.919	0.952		0.946	0.733
LU99A	0.248	0.247	0.298	0.226	0.221	0.184	0.138	0.201	0.182	0.188	0.468	0.469	0.487	0.274	0.226	0.539	0.456	0.623	0.42	0.207
LXF-289	1.15	0.997		1.01	0.736	0.974	0.911		0.803	0.706	0.851	0.726		0.668	0.543	0.995	0.88	0.958	0.801	0.686
NCI-H727	0.626	0.593	0.747	0.678	0.457						0.997	1.08	1.28	1.12	0.787	0.314	0.252	0.215	0.274	0.184
NCI-H1299	1	0.967	0.968	0.92	0.519											1.08	0.944	0.942	0.682	0.36
NCI-H1563						0.766	0.798	0.915	0.631	0.655						1.21	1.2	1.22	1.11	1.06
NCI-H1648		0.658	0.765	0.855	0.52		0.891	0.866	0.596	0.674		0.317	0.639	0.31	0.291					
NCI-H1650	0.685	0.851	0.814	0.793	0.807	0.323	0.335	0.334	0.377	0.305	0.561	0.549	0.409	0.529	0.458					
NCI-H1703	0.403	0.591		0.393	0.316											0.294	0.655		0.748	0.502
NCI-H1792		0.541		0.518	0.287		0.719		0.343	0.0593						0.706	0.488	0.681	0.484	0.137
NCI-H2170	0.635	0.662	0.603	0.629	0.534	0.222	0.254	0.232	0.247	0.254	0.835	0.75	0.462	0.67	0.778					
NCI-H2342		0.476	0.414	0.471	0.367		0.83	0.757	0.798	0.737		0.79	0.862	0.843	0.73					
SW 900	0.879	0.888		0.836	0.581	0.49	0.452		0.36	0.294	0.348	0.507		0.276	0.323					
